Experimental data as given in patent US10562842B2, “Use of polyaminoisoprenyl derivatives in antibiotic or antiseptic treatment” (UNIVERSITE D'AIX-MARSEILLE, priority 2011, dated 2020).
Peptide text beside a SMILES is read from it. * marks the point of attachment. βNA = c1ccc2cc(N*)ccc2c1

Columns and labels:
[1] = Tolerance in mice, intraperitoneal route; type: in vivo; settings: for tissue anomaly (liver, lung, kidney, intestine): day 2, Compound 5 8.8 mg/kg, 8 1.46 mg/kg, 11 0.45 mg/kg, 14 0.35 mg/kg, 12 6.3 mg/kg
Protocol: Mice were administered with increasing doses of test compounds by intraperitoneal route.
The mice were sacrificed on day 2 after the injection of the test compound and autopsied. No morphological anomaly was observed. Liver, lung, kidney and intestine of each mouse were fixed and analysed.

[2] = system: Ea289ΔacrB (Ea294); assay: MIC of antibiotics ± test compound (MIC ratio), micro-broth dilution; type: cell-based, Enterobacter aerogenes; settings: compound at MIC/4, Set 1; for MIC ratio(*) on Ea289ΔacrB Chl: chloramphenicol; for MIC ratio(*) on Ea289ΔacrB Ery: erythromycin; for MIC ratio(*) on Ea289ΔacrB Nal: nalidixic acid
Protocol: (§1) The Enterobacter aerogenes Ea289 strain is a Kans derivative of the MDR clinical isolate Ea27, the acrB mutant, EaEP294, was constructed from Ea289. Multidrug-resistant Salmonella enterica serovar Typhimurium DT104 strains (BN10055) was isolated from cattle in France, the isogenic acrB derivative mutant, BN10055ΔacrB, was constructed from BN10055. Strains were maintained at −80° C. in 25% (v/v) glycerol for cryoprotection. Bacteria were routinely grown in Mueller-Hinton (MH) broth at 37° C.
(§2) Susceptibilities to antibiotics and compounds were determined in microplates by broth dilution method, as previously described. Minimal Inhibitory Concentrations (MICs) were determined with an inoculum of 10^6 CFU in 200 μL of MH broth containing two-fold serial dilutions of each drug. […] All MIC determinations were repeated at least three times in independent experiments.
(§3) […] All MIC determinations were repeated at least three times in independent experiments. The MIC ratio corresponds to the ratio of the MIC of an antibiotic alone to the MIC of the same antibiotic in the presence of the tested compound (at MIC/4).
(§4) For reminder, the MIC ratio corresponds to the ratio of the MIC of the assessed antibiotic alone to the MIC of the same antibiotic in the presence of the tested compound (at MIC/4).

[3] = system: Enterobacter aerogenes MDR Ea289; assay: as above; type: cell-based; settings: for efficient concentration, times lower than the control PAβN: chloramphenicol MIC ratio of 8 on Ea289; for activity, effective concentration compared with PAβN to reach a MIC ratio of 8: chloramphenicol on Ea289; for Effective concentration (mM) for a MIC ratio of chloramphenicol ≥ 8 on Ea289 / MIC ratio (*) on Ea289 Chl: chloramphenicol; for MIC ratio (*) on Ea289 Chl / MIC ratio(*) on Ea289 Ery / MIC ratio (*) on Ea289 Nal: compound at MIC/4; for MIC ratio(*) on Ea289 Ery: erythromycin; for MIC ratio (*) on Ea289 Nal: nalidixic acid
Protocol: The process consists of treating the MDR bacteria with the compounds of the invention in the presence of antibiotics.
as §2
The MICs of chloramphenicol±test compounds (MIC/4) were determined by the micro-broth dilution method (9). All MIC determinations were repeated at least three times in independent experiments. The MIC ratio corresponds to the ratio of the MIC of an antibiotic alone to the MIC of the same antibiotic in the presence of the tested compound (at MIC/4).
The compounds listed in Table 2 were tested for their ability to decrease the chloramphenicol MIC of Ea289, an Enterobacter aerogenes MDR strain (1). Each compound was first tested at MIC/4. […] All MIC determinations were repeated at least three times in independent experiments.
as §4

[4] = system: Enterobacter aerogenes MDR Ea289; assay: as above; type: cell-based; settings: compound at MIC/4, Set 2; for MIC ratio (*) on Ea289 Dox: doxycycline; for MIC ratio (*) on Ea289 Nal: nalidixic acid
[5] = system: CHO cells; assay: Toxicity on CHO cultured cells; type: cell-based; settings: for IC50: killing of 50% of the CHO cells after 24 hours of incubation
Protocol: The toxicity of each compound was determined on CHO cultured cells. Incubation of CHO cells was performed with serial dilution of compounds. The compounds are either solubilized in DMSO or in PBS. The IC50 corresponds to the concentration of compounds leading to a killing of 50% of the CHO cells after 24 hours of incubation.

[6] = system: Salmonella Thyphimurium MDR BN10055; assay: MIC of antibiotics ± test compound (MIC ratio), micro-broth dilution; type: cell-based, Salmonella enterica serovar Typhimurium; settings: compound at MIC/4; for MIC ratio (*) on BN10055 Chl: chloramphenicol; for MIC ratio (*) on BN10055 Dox: doxycycline; for MIC ratio(*) on BN10055 Ery: erythromycin; for MIC ratio (*) on BN10055 Nal: nalidixic acid
Protocol: as §1, §2, §3, §4

[7] = system: BN10055ΔacrB; assay: as above; type: cell-based, Salmonella enterica serovar Typhimurium; settings: compound at MIC/4, Set 1; for MIC ratio(*) on BN10055ΔacrB Chl: chloramphenicol; for MIC ratio(*) on BN10055ΔacrB Ery: erythromycin; for MIC ratio(*) on BN10055ΔacrB Nal: nalidixic acid
Protocol: as §1, §2, §3, §4

[8] = system: Ea289; assay: MIC by broth dilution (intrinsic MIC); type: cell-based, Enterobacter aerogenes; settings: antibiotic alone
Protocol: as §2

[9] = system: Ea294; assay: MIC by broth dilution (intrinsic MIC); type: cell-based, Enterobacter aerogenes; settings: antibiotic alone
Protocol: as §2

[10] = system: BN10055; assay: MIC by broth dilution (intrinsic MIC); type: cell-based, Salmonella enterica; settings: antibiotic alone
Protocol: as §2

[11] = system: BN10055ΔacrB; assay: MIC by broth dilution (intrinsic MIC); type: cell-based, Salmonella enterica; settings: antibiotic alone
Protocol: as §2

[12] = system: strain IV2571418 - Escherichia coli pig (resistant); assay: MIC of antibiotics in the presence and absence of test compound, veterinary strains; type: cell-based; set-up: MIC for strain IV2571418, Doxycycline in the presence of test compound: unit not given beside the values; settings: compound at the Concentration (μM) (4-50)
Protocol: (§5) For each strain and each antibiotic, the MICs were determined in the presence and in the absence of one test compound.

[13] = system: strain IV2570060 - Escherichia coli cattle (sensible); assay: as above; type: cell-based; settings: compound at the Concentration (μM) (4-50)
Protocol: as §5

[14] = system: strain IV2570533 - Escherichia coli cattle (resistant); assay: as above; type: cell-based; settings: compound at the Concentration (μM) (0.896-12.6)
Protocol: as §5

[15] = system: strain IV2571223 - Escherichia coli pig (sensible); assay: as above; type: cell-based; set-up: MIC for strain IV2571223, Doxycycline in the presence of test compound: unit not given beside the values; settings: compound at the Concentration (μM) (2-50)
Protocol: as §5

[16] = system: S. enterica Thyphimurium ATCC13311; assay: Susceptibility of Gram-negative strains to macrolides in the presence of test compound; type: cell-based, Salmonella enterica Typhimurium; set-up: key to the marks not given beside the values
[17] = system: E. aerogenes ATCC13048; assay: as above; type: cell-based, Enterobacter aerogenes
[18] = system: A. Baumannii ATCC19606; assay: as above; type: cell-based, Acinetobacter baumannii; set-up: Susceptibility to Clarithomycin, A. Baumannii ATCC19606: key to the marks not given beside the values
[19] = system: E. Coli AG100; assay: as above; type: cell-based, Escherichia coli; set-up: Susceptibility to Clarithomycin, E. Coli AG100 / Susceptibility to Erythromycin, E. Coli AG100: key to the marks not given beside the values

Compound | tissue anomaly (liver, lung, kidney, intestine) [1] | MIC ratio(*) on Ea289ΔacrB Chl [2] | MIC ratio(*) on Ea289ΔacrB Ery [2] | MIC ratio(*) on Ea289ΔacrB Nal [2] | Effective concentration (mM) for a MIC ratio of chloramphenicol ≥ 8 on Ea289 [3] [mM] | efficient concentration, times lower than the control PAβN [3] | activity, effective concentration compared with PAβN to reach a MIC ratio of 8 [3] | MIC ratio (*) on Ea289 Chl ([3]; Set 1) | MIC ratio (*) on Ea289 Chl ([3]; Set 2) | MIC ratio(*) on Ea289 Ery ([3]; Set 1) | MIC ratio (*) on Ea289 Nal ([3]; Set 1) | MIC ratio (*) on Ea289 Dox [4] | MIC ratio (*) on Ea289 Nal [4] | IC50 ([5]; Cricetulus griseus) [mM] | MIC ratio (*) on BN10055 Chl ([6]; Set 1) | MIC ratio (*) on BN10055 Chl ([6]; Set 2) | MIC ratio (*) on BN10055 Dox ([6]; Set 2) | MIC ratio(*) on BN10055 Ery ([6]; Set 1) | MIC ratio (*) on BN10055 Nal ([6]; Set 1) | MIC ratio (*) on BN10055 Nal ([6]; Set 2) | also measured
CC(C)=CCC/C(C)=C/C(=O)NCCCN(CCCN)CCCN [Compound 5] | no significant tissue anomaly |  |  |  |  |  |  |  |  |  |  |  |  |  |  |  |  |  |  |  | tissue observation at the highest dose ([1]; 35.25 mg/kg): slight vascular modifications
CC(C)=CCC/C(C)=C/CC/C(C)=C/CNCCCNCCCCNCCCN [Compound 8, {3-[4-(3-Amino-propylamino)-butylamino]-propyl}-(3,7,11-trimethyl-dodeca-2,6,10-trienyl)-amine] | no significant tissue anomaly | 2 | 16 | 4 | 0.0078 | about 4.9 times | strong activity | 8-16 | 8-16 | 32 | >16 | 16 | 16-32 | 0.726 | >16 | 16-32 | 8 | 8 | 64 | 64 | MIC ratio(*) on BN10055ΔacrB Chl [7]: 4; MIC ratio(*) on BN10055ΔacrB Ery [7]: 8; MIC ratio(*) on BN10055ΔacrB Nal [7]: 4
O=C(N[C@H](CO)[C@H](O)c1ccc([N+](=O)[O-])cc1)C(Cl)Cl [Chloramphenicol, reference compound] |  |  |  |  |  |  |  |  |  |  |  |  |  |  |  |  |  |  |  |  | Chl-MIC: Chloramphenicol Minimal Inhibitory Concentration, Ea289 [8]: 1024 µg/mL; Chl-MIC: Chloramphenicol Minimal Inhibitory Concentration, Ea294 [9]: 64 µg/mL; Chl-MIC: Chloramphenicol Minimal Inhibitory Concentration, BN10055 [10]: 256 µg/mL; Chl-MIC: Chloramphenicol Minimal Inhibitory Concentration, BN10055ΔacrB [11]: 16 µg/mL
CC(C)=CCCC(C)=CCNCCCNCCCCNCCCN (racemic) [Compound 10, {3-[4-(3-Amino-propylamino)-butylamino]-propyl}-(3,7-dimethyl-octa-2,6-dienyl)-amine] |  | 16 | 8 | 8 | 0.0078 | about 4.9 times | strong activity | 16 | 8 | 4 | 16 | 16 | 16 | 2.33 | 16 | 16 | 16 | 4 | 64 | 64 | MIC for strain IV2571418, Doxycycline in the presence of test compound [12]: 2; MIC for strain IV2571418, Tylosine in the presence of test compound [12]: 16; IC50 on CHO cells, times higher than effective concentration ([5]; IC50 on CHO cells versus effective concentration on Ea289): about 300 times; MIC for strain IV2570060, Doxycycline in the presence of test compound [13]: 0.125; MIC for strain IV2570060, Tylosine in the presence of test compound [13]: 16; MIC for strain IV2570533, Doxycycline in the presence of test compound [14]: 2; MIC for strain IV2570533, Tylosine in the presence of test compound [14]: 8; MIC for strain IV2571223, Doxycycline in the presence of test compound [15]: 0.0625; MIC for strain IV2571223, Tylosine in the presence of test compound [15]: 4; MIC ratio(*) on BN10055ΔacrB Chl [7]: 2; MIC ratio(*) on BN10055ΔacrB Ery [7]: 8; MIC ratio(*) on BN10055ΔacrB Nal [7]: 2
CC(C)=CCC/C(C)=C/CNCCCN [Compound 12, (3,7-Dimethyl-octa-2,6-dienyl)-propane-1,3-diamine] | no significant tissue anomaly |  |  |  |  |  |  |  | 16 |  |  | 16 | 4-8 |  |  | 8 | 16 |  |  | 32 | 
N=C(N)NCCC[C@H](NC(=O)[C@@H](N)Cc1ccccc1)C(=O)Nc1ccc2ccccc2c1 [PAβN, Phenyl-Arginine β-Naphtylamide] (H-Phe-Arg-βNA) |  |  |  |  | 0.038 |  |  |  |  |  |  |  |  |  |  |  |  |  |  |  | Susceptibility to Clarithomycin, S. enterica Thyphimurium ATCC13311 [16]: ++; Susceptibility to Erythromycin, S. enterica Thyphimurium ATCC13311 [16]: ++; Susceptibility to Spiramycin, S. enterica Thyphimurium ATCC13311 [16]: ++; Susceptibility to Clarithomycin, E. aerogenes ATCC13048 [17]: +; Susceptibility to Erythromycin, E. aerogenes ATCC13048 [17]: +; Susceptibility to Spiramycin, E. aerogenes ATCC13048 [17]: +; IC50 [5]: > 5 mM; Susceptibility to Clarithomycin, A. Baumannii ATCC19606 [18]: ++; Susceptibility to Erythromycin, A. Baumannii ATCC19606 [18]: +; Susceptibility to Spiramycin, A. Baumannii ATCC19606 [18]: +; Susceptibility to Clarithomycin, E. Coli AG100 [19]: ++; Susceptibility to Erythromycin, E. Coli AG100 [19]: ++; Susceptibility to Spiramycin, E. Coli AG100 [19]: +
